Experimental data published in patent publication US20250340837A1, “CELLS” (University of Geneva, priority 2022, published 2025).

Columns and labels:
Type in all cases: cell-based, mouse
[1] = tested on: phoenix auditory neurons; assay: Induced Ca2+ cytosolic release (FLUO-8) in differentiated phoenix auditory neurons; details: for EC50: D7 differentiated phoenix SGCs, dose response from max-min amplitude, read-out: EC50 of induced Ca2+ transients; for Induction of Ca2+ transients: phoenix auditory neurons after 7 days of differentiation
Procedure: (A-C) Kinetics of Ca^2+ transients induced by (A) Glutamate (higher trace for the higher concentration), (B) ATP (higher trace for the higher concentration), (C) Kainate in phoenix auditory neurons after 7 days of differentiation. Phoenix auditory neurons were loaded with Ca^2+ sensitive ratiometric probe (FLUO-8) and stimulated with increasing concentrations of glutamate ([…]), ATP (0.005-10 μM) or kainate (0.02-50 μM). (D) Dose response curves were extracted from the max-min amplitude values, allowing the determination of an EC50 value (in order of highest to lowest effect: Ionomycin, ATP, Glutamate, Thapsigargin and Kainate (no effect for Kainate). (E). Ionomycin and Thapsigargin were used as positive control. Data represent the average+/−SEM of 3 independent experiments.
A total of 32,000 cells/well were differentiated to auditory neurons on a 96-well plate coated with Matrigel, as previously described (Rousset et al., 2020). Differentiated cells were loaded with FLUO-8 (Interchim), according to the manufacturer's protocol. After an incubation period of typically 45 min at 37° C. with the inducing agent or control, the induced cytosolic calcium release was assessed in a FDSS/pCELL Functional Drug Screening System (Hamamatsu). The neuronal kinetics of calcium release was followed over about 10 min following treatment, with one measure every 0.5 s.
To further explore the excitatory function of differentiated phoenix SGCs, Ca2+ mobilization was studied in response to several physiological stimuli, namely glutamate, ATP, and kainate (FIG. 4). […] Ionomycin, an ionophore facilitating the transport of divalent cations across cell membranes, and thapsigargin, inhibiting the SERCA pump and therefore the transfer of Ca^2+ toward endoplasmic reticulum, were used as positive controls (FIG. 4D). The excitatory pattern of phoenix SGCs was also compared with human fetal sphere-derived ones and mouse spiral ganglion explants using live Ca^2+ imaging. […] Therefore, at any passage and following differentiation, phoenix auditory SGCs resemble the auditory neuron physiology.
Further, the impact of BDNF and NT-3 alone or in combination on phoenix auditory neurons' glutamatergic function was assessed. Phoenix neuroprogenitors were plated on poly-ornithine and laminin coated 96 well plates and differentiated for 7 days with or without BDNF and NT-3 alone or in combination. To assess effect of neurotrophins, the auditory neuron were stimulated twice with glutamate: first with 10 μM (EC90) and 10 min later with 100 μM, eliciting a maximal glutamatergic response (FIG. 15A). Traces show the Ca2+ mobilization kinetics with 50 ng/mLNT-3+25 ng/mL BDNF (top light curve) or without neurotrophins (bottom dark curve) upon glutamate stimulation as recorded with Ca2+ sensitive ratiometric probe (FLUO-8). Arrows show the max-min amplitude of the response following the first (10 μM) or the second (100 μM) glutamate stimulation. Heatmaps showing the effect of BDNF and NT-3 alone or in combination on Ca2+ release (min-max amplitude) induced by 10 μM glutamate (FIG. 15B) and 100 μM glutamate (FIG. 15C).

[2] = tested on: C57Bl/6 ANPGs; assay: Neurosphere growth and self-propagation induction in low stemness ANPGs
Procedure: (B) Picture showing representative triplicate of ANPG spheres cultured for 1 month in a 96 well plate. Phoenix cells are used as positive control. C57Bl/6: ANPGs were cultured in DMEM:F12+N2 and B27 supplements without growth factors. +GF: DMEM:F12+N2 and B27+FGF 10 ng/mL+EGF 20 ng/mL+IGF 50 ng/mL+Heparan Sulfate 50 ng/mL. GF+DS:DMEM:F12+N2 and B27+IGF+EFG+HS+FGF+LDN193189 0.5 μM+SB431542 10 μM. GF+CHIR: DMEM:F12+N2 and B27+IGF+EFG+HS+FGF+CHIR99021 3 μM. +GF+CHIR+DS: DMEM:F12+N2 and B27+IGF+EFG+HS+FGF+LDN193189 0.5 μM+SB431542 10 μM+CHIR99021 3 μM. Phoenix+GF: phoenix ANPG cultured in standard conditions (DMEM:F12+N2 and B27+IGF+EFG+HS+FGF). (C) Graph showing the average sphere area at different time points (up to 38 days). […] (D) Following DNA staining, flow cytometry was performed to determine the percentage of cells engaged in the cell cycle (phase S/G2M; proliferating). […] (E) After reprogramming, ANPGs were differentiated on Matrigel coating following removal of mitogenic factors. […]
(B) Representative pictures of ANPG spheres 4 days following the first passage cultured in “standard” conditions (GF) or (C, left) in conditions to induce stemness (GF+LDN193189 0.5 μM+SB431542 10 μM+CHIR99021 3 μM). […] (D) At every passage, following dissociation with Accutase, ANPGs were counted with a fast read counting chamber. […]

[3] = tested on: stemness-induced ANs; assay: Glutamate-induced Ca2+ response in stemness-induced auditory neurons (Regenix)
Procedure: FIG. 21 Phenotypical characterization of stemness induced Auditory Neurons (ANs). (A) C57Bl/6 ANPG, were treated with WNT agonist (CHIR99021; 3 μM) or TGFb antagonist (dual SMAD inhibitors; LDN193189 0.5 μM, SB431542 10 μM) aiming at replicating phoenix ANPG stemness phenotype. After 38 days of induction, stemness-induced ANPGs were differentiated on Matrigel coating following removal of mitogenic factors. BDNF (10 ng/mL), NT-3 (50 ng/mL) and LIF (10 ng/mL) were added during the 7 days of differentiation. (B-E) Immunostainings in differentiated ANs were compared to stemness-induced ANPGs neurospheres at the same passage. (B-B′) B-III tubulin (TUJ, green) and Sox2 (red) stainings were respectively performed in (B) ANPGs and (B′) ANs. (C-C′) B-III tubulin (TUJ, green) and Nestin (Nes, red) stainings were respectively performed in (C) ANPGs and (C′) ANs. D-D′) B-III tubulin (TUJ, green) and S100 (red) stainings were respectively performed in (D) ANPGs and (D′) ANs. E-E′) B-III tubulin (TUJ) and KI67 stainings were respectively performed in (E) ANPGs and (E′) ANs. TUJ staining appears in green in ANPGs and red in ANs and KI67 appears in red in ANPGs and in green in ANs. […] (F-G) Excitatory potential of stemness-induced ANs was tested using live Ca^2+ imaging. Stemness-induced ANPGs were differentiated for 7 days in absence of growth factors. […]

[4] = tested on: phoenix auditory neurons; assay: Morphology of phoenix auditory neurons differentiated with neurotrophins (Imaris); details: 72 h differentiation; peaking at 100 ng/mL
Procedure: FIG. 14 Impact of BDNF and NT-3 supplementation on morphology of phoenix auditory neurons. Phoenix neuroprogenitors were differentiated for 72 h in presence of various concentrations of BDNF or NT-3 in 96-well plates. […] (A-D) The untreated control is represented by the bar in the left of each of the four graphs, BDNF treated specimens in the bars in the middle of each of the four graphs, and NT-3 treated by the bars on the right of each of the four graphs. The dashed horizontal grey line marks the median of the control group. The numbers on the x-axis denote neurotrophin concentrations in ng/ml. The horizontal lines in the boxes denote the median value and the dots the mean value. Whiskers extend from minimum to maximum. […] Exemplary images of differentiated cells after 72 h in culture and immunohistochemical staining without treatment (E) and supplementation of 100 ng/mL BDNF (F) and 100 ng/mL NT-3 (G). (E-G) Scale bar: 100 μm.
(§1) Organotypic spiral ganglion explant culture was carried out prior to in vitro phoenix sphere derived neuron assays, as shown in the workflow in FIG. 12. […] After fixation, specimens were stained with DAPI and for β-III-tubulin (TuJI antibody) to address the effect of neurotrophins on neurite outgrowth and neuron numbers, quantified with a modified Sholl analysis routine. For each explant, the neurite length index (NLI) was computed, and associated intersection counts served as approximation for neuron numbers. The lower rows show phoenix auditory neuroprogenitor sphere dissociation and induction of differentiation. To assess the outgrowth morphology, cells were seeded at 7,000 cells/well with presence of NT-3 or BDNF for 72 h. Differentiated cells were stained for β-III-tubulin, GFAP and DAPI for morphological analysis. Parameters such as the total neurite outgrowth, the number of neurons, the number of glial cells and the mean neurite length were assessed using a custom-made Imaris procedure. For a functional evaluation by means of a calcium response assay to glutamate, 30,000 cells were seeded per well and differentiated with supplementation of BDNF, NT-3 or combinations thereof. Via a fluorescent calcium binding dye, the cellular response to glutamate was quantified.
The impact of BDNF and NT-3 supplementation on morphology of phoenix auditory neurons was also assessed. Phoenix neuroprogenitors were differentiated for 72 h in presence of various concentrations of BDNF or NT-3 in 96-well plates.

[5] = tested on: spiral ganglion explants (SGE); assay: Organotypic spiral ganglion explant culture, neurite outgrowth and intersections (modified Sholl analysis); details: P7 SGE, 96 h; for Neurite outgrowth (neurite length index, NLI): compared to spontaneous outgrowth
Procedure: FIG. 13 Effect of BDNF and NT-3 alone or in combination on organotypic spiral ganglion explant culture morphology. Spiral ganglion explants (SGE) of freshly dissected P7 old mouse pups were seeded in poly-D-lysin and laminin coated 96 well plates and incubated without (n=94) or with BDNF, NT-3 or combinations of these for 96 h. Neurite outgrowth (A-C) and intersections (D-F) were quantified with representative explant micrographs underneath (G) for the given treatments. Numbers indicate the amount of neurotrophin added in ng/ml. […] In controls, a substantial outgrowth with a mean NLI of 20828 (±5647/4442; n=94), was registered. […] (D-F) Bar graphs show the intersection quantification, representing the approximated number of neurons with outgrowth. […] (A-F) Bars represent geometric means in μm; error bars indicate ±upper and lower 95% confidence intervals for the mean. The shaded area in the bottom section of each graph represents control levels (i.e. levels for samples that were not treated with BDNF and/or NT-3). One-way ANOVA, followed by Tukey-Kramer post-hoc test. Dunn non-parametric comparison with control, *p<0.05, **p<0.01, ***p<0.001.
as §1
The effect of BDNF and NT-3 alone or in combination on organotypic spiral ganglion explant culture morphology was assessed. […] Neurite outgrowth (FIG. 13 A-C) and intersections (FIG. 13 D-F) were quantified. […]

| Molecule | EC50 [1] [nM] | Induction of Ca2+ transients [1] | number of glial cells (exclusively GFAP positive cells) [4] | number of neurons (exclusively beta-III-tubulin positive cells) [4] | total neurite outgrowth [4] | Intersections (approximated number of neurons with outgrowth) [5] | Neurite outgrowth (neurite length index, NLI) [5] | also measured |
| --- | --- | --- | --- | --- | --- | --- | --- | --- |
| Nc1ncnc2c1ncn2[C@@H]1O[C@H](COP(=O)(O)OP(=O)(O)OP(=O)(O)O)[C@@H](O)[C@H]1O [ATP] | 430 | Robust Ca^2+ transients | – | – | – | – | – | – |
| Cc1c[nH]c(-c2cnc(NCCNc3ccc(C#N)cn3)nc2-c2ccc(Cl)cc2Cl)n1 [CHIR, CHIR99021] | – | – | – | – | – | – | – | ability of treated ANPGs to differentiate into neurons and glial cells ([2]; 7 days differentiation on Matrigel, BIII-tubulin and S-100 staining): able to differentiate into neurons; expansion over passages ([2]; number of cells/passage up to passage 13): not able to expand |
| N[C@@H](CCC(=O)O)C(=O)O [glutamate] | 1160 | Robust Ca^2+ transients | – | – | – | – | – | EC50 of glutamate-induced Ca2+ response ([1]; Phoenix ANs, glutamate increments, 1/2 serial dilutions): within the μM range; EC90 ([1]; first glutamate stimulation of phoenix auditory neurons, read-out: glutamate concentration given as EC90): 10000 nM; Ca2+ response, live Ca2+ imaging ([3]; glutamate 100 uM, siANs differentiated for 7 days): robust Ca2+ response; EC50 of glutamate-induced Ca2+ response ([3]; stemness-induced ANs (Regenix), glutamate increments, 1/2 serial dilutions): within the μM range |
| neurotrophin-3 (protein, UniProt P20783 139-257, looked up) Neurotrophin-3: YAEHKSHRGEYSVCDSESLWVTDKSSAIDIRGHQVTVLGEIKTGNSPVKQYFYETRCKEARPVKNGCRGIDDKHWNSQCKTSQTYVRALTSENNKLVGWRWIRIDTSCVCALSRKIGRT | – | – | increased in general in a dose depended manner | increased in general in a dose depended manner | increased in general in a dose depended manner | rose significantly in a dose-dependent manner | significantly enhanced | – |
| brain-derived neurotrophic factor (protein, UniProt P23560 19-247, looked up, neurotrophin) Neurotrophic factor BDNF …: APMKEANIRGQGGLAYPGVRTHGTLESVNGPKAGSRGLTSLADTFEHVIEELLDEDQKVRPNEENNKDADLYTSRVMLSSQVPLEPPLLFLLEEYKNYLDAANMSMRVRRHSDPARRGELSVCDSISEWVTAADKKTAVDMSGGTVTVLEKVPVSKGQLKQYFYETKCNPMGYTKEGCRGIDKRHWNSQCRTTQSYVRALTMDSKKRIGWRFIRIDTSCVCTLTIKRGR | – | – | increased in general in a dose depended manner | increased in general in a dose depended manner | increased in general in a dose depended manner | rose significantly in a dose-dependent manner | significantly enhanced | – |
